Reference: patent US20210130420A1, “RECOMBINANT BINDING PROTEINS TARGETING HER2 AND SERUM ALBUMIN, AND THEIR USES” (Molecular Partners AG, priority 2016, published 2021)
Where two headings read alike, the source gives them in different places. Values belong to the molecule of their own block, whether it stands above or below them.

Assays:
[1] = tested on: BT474 cells; assay: BT474 cell proliferation, BrdU-labeling; format: cell-based, human; settings: Homo sapiens, BT-474, read-out: cell proliferation inhibition constant IC50, BT474
Procedure: Protein #21-His and Protein #23-His, were expressed and purified as described in Example 1. Effects of the recombinant binding proteins on BT474 cell proliferation were determined by measuring DNA synthesis using BrdU-labeling (BrdU, Cell Proliferation ELISA, Roche). Briefly, 10000 BT474 cells were seeded per well in a 96 well plate in 100 ul complete medium and incubated for 24 hours. Recombinant binding proteins or controls were added for an additional 72 hours. BrdU for cell labeling was added for the last 24 hours. Labeled (proliferating) cells were detected according to the manufactures protocol. The data were analyzed using the GraphPad prism software, plotting log [c] on the x-axis against OD450-602 nm on the y-axis. Data were fitted using a non-linear regression fit (log(antagonist) vs. response—Variable slope (four parameters)) deriving IC50 values.
Protein #21 and Protein #21-His were expressed and purified as described in Example 1. Standard BrdU cell proliferation assays were performed, well-known to the person skilled in the art. Briefly, effects on cell proliferation of Protein #21-His, other compounds, or Protein #21-His in combination with other compounds, were determined by measuring DNA synthesis using BrdU-labeling (BrdU, Cell Proliferation ELISA, Roche). Briefly, 10000 cells were seeded per well in a 96 well plate in 100 μl complete medium and incubated for 24 hours. Protein #21-His and/or compounds were added for an additional 72 hours. BrdU for cell labeling was added for the last 24 hours. Labeled (proliferating) cells were detected according to the manufactures protocol. The data were analyzed using the Graph Pad prism software (log [c] vs. OD450-602 nm plot). Data were fitted using a non-linear regression fit (log(antagonist) vs. response—variable slope (four parameters)).

[2] = Storage stability in PBS analysed by SDS-PAGE; format: physicochemical; settings: for degradation upon prolonged incubation: in PBS at 10 mg/ml at 40° C.
Procedure: “Improved storage stability” in the context of the present invention means the reduction of the amounts of a degradation band, preferably the reduction of the amount of degradation products, as detected by a Coomassie-stained SDS-PAGE occurring after storage at 40° C. for 1 month at 10 mg/ml in PBS, by at least 5%, 10%, 15%, 20%, 25%, 30%, 35%, 40%, 45%, 50%, or 50%. Methods to assess storage stability by SDS-PAGE are well known to the person skilled in the art. Examples of designed ankyrin repeat domains and recombinant binding proteins with improved storage stability properties are given in Examples 2 and 3.
Protein #13-His, Protein #14-His and Protein #15-His were prepared as described in Example 1, and samples were concentrated to 10 mg/ml in PBS. Protein #14-His and Protein #15-His where then stored for 1 month at −80° C. or at 40° C. in glass vials, followed by analysis on SDS 15% PAGE. […] These findings illustrate that Protein #14-His has improved storage stability compared to Proteins #13-His and Protein #15-His.
A storage stability improvement is also observed, when testing the storage stability of Protein #21 and Protein #22 (recombinant binding proteins consisting of the amino acid sequences corresponding to SEQ ID NOs: 21 and 22, respectively). Protein #21 and Protein #22 are prepared as described in Example 1, samples are concentrated to 10 mg/ml in PBS and stored for 1 month at −80° C. in or at 40° C. in glass vials, followed by analysis on standard size-exclusion chromatography.

[3] = Pharmacokinetic analysis in mouse; format: in vivo
Procedure: The measurements shown in this example are the result of a half-life engineering effort as described in Example 11. Protein #21-His and Protein #23-His were expressed and purified as described in Example 1. The pharmacokinetic properties of the His-tagged proteins were assessed in mouse as described elsewhere (Zahnd, C., Kawe, M., Stumpp, M. T., de Pasquale, C., Tamaskovic, R., Nagy-Davidescu, G., Dreier, B., Schibli, R., Binz, H. K., Waibel, R., Plückthun, A., Cancer Res. 70, 1595-1605, 2010). […] Having SEQ ID NO: 16 present in the recombinant binding protein thus appears to be more favorable than having SEQ ID NO: 18 present.
Polypeptide linkers that link protein domains are well-known to the person skilled in the art. Gly-Ser-rich linkers are well-known from single-chain Fv antibody fragments, where they have proven to be most appropriate to link the two Fv polypeptide chains. […] Protein #26-His and Protein #27-His, were expressed and purified as described in Example 1. Pharmacokinetic analyses in mouse were performed as described in Example 8.
For the studies in this example Protein #21-His, Protein #24-His, Protein #28-His, Protein #29-His, and Protein #30-His were prepared according to Example 1. Protein #28-His was additionally PEGylated using a 40 kDa PEG moiety (NOF Sunbright GL2-400MA) by maleimid coupling of the PEG-moiety onto the free C-terminal cysteine of Protein #28-His, followed by purification to homogeneity using standard purification methods, procedures well known to the person skilled in the art. Pharmacokinetic analyses in mouse or cynomolgus monkey were performed as described in Examples 8 and 9.

[4] = compound titrated alone or with Protein #21 at 2 nM
[5] = Protein #21 was titrated, Trametinib (10^−5 M), Cobimetinib (10^−5 M) or Salirasib (3*10^−5 M)

B1: Protein #12-His: SEQ ID NO: 12 with a His-tag; designed ankyrin repeat domain with binding specificity for serum albumin (WO2012/069654) (protein)
chain: GSDLGKKLLEAARAGQDDEVRILLKAGADVNAKDYFSHTPLHLAARNGHLKIVEVLLKAGADVNAKDFAGKTPLHLAANDGHLEIVEVLLKAGADVNAQDIFGKTPADIAADAGHEDIAEVLQKAA
modifications: His-tag; Designed ankyrin repeat domain
degradation upon prolonged incubation [2]: degrade

B2: Protein #15-His: SEQ ID NO: 15 with a His-tag; designed ankyrin repeat domain with binding specificity for serum albumin (WO2012/069654) (protein)
chain: GSDLGKKLLEAARAGQDDEVRILMANGADVNAKDYFSHTPLHLAARNGHLKIVEVLLKAGADVNAKDFAGKTPLHLAANDGHLEIVEVLLKHGADVNAQDIFGKTPADIAADAGHEDIAEVLQKAA
modifications: His-tag; Designed ankyrin repeat domain
stability upon storage at −80° C. ([2]; 10 mg/ml in PBS, 1 month at −80° C., SDS 15% PAGE): equivalent stability | degradation upon prolonged incubation [2]: degrade

B3: Protein #30-His: SEQ ID NO: 30 with a His-tag (SEQ ID NO: 1) fused to its N terminus (protein)
chain: MRGSHHHHHHGSDLGKKLLEAARAGQDDEVRILMANGADVNAKDYFSHTPLHLAARNGHLKIVEVLLKAGADVNAKDFAGKTPLHLAANDGHLEIVEVLLKHGADVNAQDIFGKTPADIAADAGHEDIAEVLQKAAGGGGSGGGGSGGGGSGGGGSGSDLGKKLLEAARAGQDDEVRILMANGADVNAKDYFSHTPLHLAARNGHLKIVEVLLKAGADVNAKDFAGKTPLHLAANDGHLEIVEVLLKHGADVNAQDIFGKTPADIAADAGHEDIAEVLQKAAGGGGSGGGGSGGGGSGGGGSGSDLGAKLLSDLGVKLLWAAARGQDDEVRILLAAGADVNAKDFQGITPLHIAAQSGHLEIVEVLLKAGADVNAKDVTGDTPLHLAAQHGHLVIVEVLLKAGADVNAQDERGWTPADLAADWGHEDIAEVLQKAAGGGGSGGGGSGSDLGKKLLEAARAGQDDEVRILMANGADVNAKDEYGLTPLYLATAHGHLEIVEVLLKNGADVNAVDAIGFTPLHLAAFIGHLEIAEVLLKHGADVNAQDKFGKTAFDISIGNGNEDLAEILQKAA
modifications: His-tag; Protein comprising four designed ankyrin repeat domains
mouse pharmacokinetic profile, two versus one serum albumin binding domain ([3]; Protein #30-His compared to Protein #29-His, FIG. 5B): benefit of having two designed ankyrin repeat domains with binding specificity for serum albumin

B4: Protein #27-His: SEQ ID NO: 27 with a His-tag (SEQ ID NO: 1) fused to its N terminus (protein)
chain: MRGSHHHHHHGSDLGKKLLEAARAGQDDEVRILMANGADVNAKDYFSHTPLHLAARNGHLKIVEVLLKAGADVNAKDFAGKTPLHLAANDGHLEIVEVLLKHGADVNAQDIFGKTPADIAADAGHEDIAEVLQKAAGSPTPTPTTPTPTPTTPTPTPTGSDLGAKLLSDLGVKLLWAAARGQDDEVRILLAAGADVNAKDFQGITPLHIAAQSGHLEIVEVLLKAGADVNAKDVTGDTPLHLAAQHGHLVIVEVLLKAGADVNAQDERGWTPADLAADWGHEDIAEVLQKAAGSPTPTPTTPTPTPTTPTPTPTGSDLGKKLLEAARAGQDDEVRILMANGADVNAKDEYGLTPLYLATAHGHLEIVEVLLKNGADVNAVDAIGFTPLHLAAFIGHLEIAEVLLKHGADVNAQDKFGKTAFDISIGNGNEDLAEILQKAAGSPTPTPTTPTPTPTTPTPTPTGSDLGKKLLEAARAGQDDEVRILMANGADVNAKDYFSHTPLHLAARNGHLKIVEVLLKAGADVNAKDFAGKTPLHLAANDGHLEIVEVLLKHGADVNAQDIFGKTPADIAADAGHEDIAEVLQKAA
modifications: His-tag; Protein comprising four designed ankyrin repeat domains
injected dose remaining 48 hours after intravenous injection [3]: 7% | terminal half-life, comparison [3]: longer terminal half-life than Protein #26-His

B5: Protein #26-His: SEQ ID NO: 26 with a His-tag (SEQ ID NO: 1) fused to its N terminus (protein)
chain: MRGSHHHHHHGSDLGKKLLEAARAGQDDEVRILMANGADVNAKDYFSHTPLHLAARNGHLKIVEVLLKAGADVNAKDFAGKTPLHLAANDGHLEIVEVLLKHGADVNAQDIFGKTPADIAADAGHEDIAEVLQKAAGGGGSGGGGSGGGGSGGGGSGSDLGAKLLSDLGVKLLWAAARGQDDEVRILLAAGADVNAKDFQGITPLHIAAQSGHLEIVEVLLKAGADVNAKDVTGDTPLHLAAQHGHLVIVEVLLKAGADVNAQDERGWTPADLAADWGHEDIAEVLQKAAGGGGSGGGGSGSDLGKKLLEAARAGQDDEVRILMANGADVNAKDEYGLTPLYLATAHGHLEIVEVLLKNGADVNAVDAIGFTPLHLAAFIGHLEIAEVLLKHGADVNAQDKFGKTAFDISIGNGNEDLAEILQKAAGGGGSGGGGSGGGGSGGGGSGSDLGKKLLEAARAGQDDEVRILMANGADVNAKDYFSHTPLHLAARNGHLKIVEVLLKAGADVNAKDFAGKTPLHLAANDGHLEIVEVLLKHGADVNAQDIFGKTPADIAADAGHEDIAEVLQKAA
modifications: His-tag; Protein comprising four designed ankyrin repeat domains
injected dose remaining 48 hours after intravenous injection [3]: 5.3%

Continued, values first:

IC50 [1, 4]: 2540 nM
Molecule: Cc1nc(NC(=O)N2CCC[C@H]2C(N)=O)sc1-c1ccnc(C(C)(C)C(F)(F)F)c1 [Alpelisib]

IC50 [1, 4]: 2600 nM
Molecule: CC(=O)c1c(C)c2cnc(Nc3ccc(N4CCNCC4)cn3)nc2n(C2CCCC2)c1=O [Palbociclib]

IC50 [1, 5]: 0.94 nM
Molecule: CC(C)=CCC/C(C)=C/CC/C(C)=C/CSc1ccccc1C(=O)O [Salirasib]

IC50 [1, 5]: 1.02 nM
Molecule: O=C(c1ccc(F)c(F)c1Nc1ccc(I)cc1F)N1CC(O)([C@@H]2CCCCN2)C1 [Cobimetinib]

IC50 [1, 4]: 105 nM
Molecule: Cc1nc(-c2cn3c(n2)-c2ccc(-c4cnn(C(C)(C)C(N)=O)c4)cc2OCC3)n(C(C)C)n1 [Taselisib]

IC50 [1, 5]: 1.04 nM
Molecule: CC(=O)Nc1cccc(-n2c(=O)n(C3CC3)c(=O)c3c(Nc4ccc(I)cc4F)n(C)c(=O)c(C)c32)c1 [Trametinib]

IC50 [1, 4]: 204 nM
Molecule: Cc1c(CN2CCN(C(=O)[C@H](C)O)CC2)sc2c(N3CCOCC3)nc(-c3cnc(N)nc3)nc12 [Apitolisib]
